Data taken from patent publication US20110165652A1, “COMPOSITIONS, METHODS AND SYSTEMS FOR SINGLE MOLECULE SEQUENCING” (LIFE TECHNOLOGIES CORPORATION, priority 2008, published 2011).

Assays:
Type in all cases: biochemical
[1] = Initial tests of reaction rate of alpha-phosphate modified dGTP; settings: data not shown
[2] = system: 5′ fluorescein-labeled primer:template duplex; test: Ensemble primer extension with gamma-labeled dNTP by Phi29 mutant protein; settings: for extension (FIG. 70C, 70D): ensemble PAGE analyses, γ-nucleotides; for Ensemble Extension Activity: γ-nucleotide incorporation: relative to parent Phi29 exo(−) D12A/D66A, 0.5 μM or 5 μM gamma-labeled dNTP, 10 seconds to 5 minutes
Text: Table 1, below, summarizes the ability of each mutant Phi29 polymerase to incorporate gamma-labeled nucleotides (as indicated in the column entitled “Ensemble Extension Activity”), fidelity of replication (as indicated in the column entitled “Fidelity”) and for activity in a single-molecule detected system, as depicted in FIGS. 20-59′ and 69-76 and associated description (see below), and indicated in the last column, entitled “Activity on Detection System.” Each and every mutation introduced into a given Phi29 mutant protein is listed in the column entitled “Mutations”; mutations are designated by the original amino acid/its position/its replacement, e.g., V250A means that valine at position 250 was replaced by alanine by site specific mutagenesis. If two or more amino acid substitutions are made, then each is designated as above and separated by a “/”. The predicted effect of a given mutation on polymerase activity, based on structure-function analysis of Phi29 polymerase, is provided in the column entitled “Expected Effect.” The various Phi29 mutants generated via selective mutagenesis, along with any applicable results of extension studies, fidelity assays and single molecule detection studies using each mutant protein, are collectively summarized in Table 1, below. To perform the extension studies, 330 nM Phi29 mutant protein and 100 nM 5′ fluorescein-labeled primer:template duplex were co-incubated in a solution comprising 50 mM Tris (pH 7.0), 2 mM MnCl2, 2 mM DTT, 0.1% Triton-X-100, 0.01% Tween-20. The reactions were initiated by addition of 0.5 μM or 5 μM of gamma-labeled dNTP, and quenched via addition of 30 mM EDTA at timepoints ranging from 10 seconds to 5 minutes. The reaction products were then separated on a 20% denaturing acrylamide gel and imaged on a Bio-Rad Molecular Imager FX. The intensity of each reaction product was quantified using Bio-Rad Quantity One software. FIGS. 20-59′ depict the results of extension studies conducted using specific Phi29 mutants.

[3] = system: 5′ fluorescein-labeled primer:template duplex; test: Replication fidelity: primer extension with incorrect (non-complementary) gamma-labeled nucleotide; settings: incorrect gamma-labeled nucleotide in lieu of the complementary one
Experimental: To assay the replication fidelity of each mutant Phi29 polymerase protein, primer extensions were carried out in the same manner, except that an incorrect (i.e., non-complementary) gamma-labeled nucleotide was added to the extension mixture in lieu of the complementary nucleotide, and the amount of extended product following extension in presence of the incorrect nucleotide was analyzed.

[4] = system: template specifying incorporation of a single γ-labeled nucleotide; test: Real time on-surface single molecule detection of γ-labeled nucleotide incorporation; settings: number of signals relative to parent enzyme
Experimental: Real time “On surface” experiments were performed to characterize the activity of the Phi29 variants on an exemplary single molecule sequencing system (FIGS. 72A and B). Chambered slides were prepared to facilitate injection and multiple experiments data collection from several chambers using a single slide. The template specified incorporation of a single γ-labeled nucleotide. The samples were excited using a 488 nm Argon ion laser at 2.5 mW and the data were collected at 25 ms integration time. Each stream of data was collected for 1500 frames, consecutive streams were collected for ˜5 minutes by moving to new fields of views (FOVs). FRETAN software was used to obtain the donor and acceptor traces.
After trace analysis, the selected signals (with acceptor signal over background greater than 4, i.e., ASN≧4) were characterized by examining attributes including duration, ASN and timing of signal appearance (i.e., start of signals). The variants that are of special interest include Variants 2 and 3.

[5] = system: dG2Oy650; test: Inc50: nucleotide concentration at which half of the primer is extended one base in sixty seconds; settings: dG2Oy650 in duplicate
Text: In one exemplary embodiment, an alanine was substituted for the valine at position 250. As is seen in FIG. 70C (Variant 5) the rate of extension by this mutant polymerase is decreased relative to wild type. […] To compensate for the reduced extension we combined V250A with several mutations that increase binding efficiency of γ-modified nucleotides. […] As is seen in FIG. 70C, Variant 2, the extension of the V250A mutant is improved through introduction of the E375Y mutation. The mutation V250A was also combined with the mutations E375A/Q380A as well as E375C.

[6] = system: γ-dGTP; test: 7-base homopolymeric extension reactions (FIG. 19B, 19C); settings: 1 μM γ-dGTP
Text: When the aspartic acid at position 456 is mutated, the activity is reduced but still detectable. FIG. […]
Three residues that have been implicated in catalysis of nucleotide incorporation by phi29 DNA polymerase are D458, D456, and V250 (Berman, Kamtekar et al., 2007). […] In one embodiment, D456 is mutated to glutamic acid, thus distorting the active site, but still allowing catalysis due to the presence of the functional group. The backbone of V250 additionally appears to play a role in catalysis; in some embodiments, the chemistry step will be slowed by mutating the V250 residue to an isoleucine or alanine in order to slow the chemistry step.

[7] = system: dATP-1-ROX; test: Primer extension by various polymerases with dATP-1-ROX or natural dATP; settings: dATP-1-ROX vs natural dATP, optimal temperature of each polymerase
Experimental: FIG. 6 depicts the results of experiments to assess the nucleotide incorporation efficiency of various DNA mutated and non-mutated polymerases (Sequenase; Thermo-Sequenase; wild-type Taq from Promega; HIV reverse transcriptase; and a mutant Taq polymerase comprising the mutation F647C) using both natural (unlabeled) dATP as well as the gamma-modified nucleotide dATP-1-Rox. Each reaction was conducted at the individual polymerase's optimal temperature with equimolar concentrations of enzymatically cleared gamma-labeled nucleotides and units of polymerase. […] Primer extension reactions were performed in the presence of the nucleotide dATP-1-ROX or natural dATP. The ‘Neg Control’ is a control lacking both polymerase and nucleotide. The extension products were size separated using denaturing gel electrophoresis, and visualized on a Bio-Rad fx Imager. Incorporation of the gamma-labeled nucleotide results in the production of a resolvable extension duplex that indicates incorporation of a single dATP. The non-extended primer is the lower band; extension products are more slowly migrating. […] FIG. 81 is a solid ribbon diagram generated in DS Viewer Pro of Taq DNA Polymerase.

In the case of `BP(=O)(OCC1OC(n2cnc3c(=O)[nH]c(N)nc32)CC1O)OP(=O)(O)OP(=O)(O)O` (stereo not drawn) [[alpha]-P-borano-dGTP], the “reduction of reaction rate as compared to the natural counterpart” value [1] is reported as 1.32 fold.

In the case of `Nc1nc2c(ncn2[C@H]2C[C@H](O)[C@@H](COP(O)(=S)OP(=O)(O)OP(=O)(O)O)O2)c(=O)[nH]1` (stereo partly drawn) [[alpha]-P-thiol-dGTP], the “reduction of reaction rate as compared to the natural counterpart” value [1] is reported as 1.61 fold.

In the case of “E375A: Phi29 exo(−) (D12A/D66A) polymerase mutant [Variant E375A]”, the “extension (FIG. 70C, 70D)” value [2] is reported as “increased extension”, the “Ensemble Extension Activity: γ-nucleotide incorporation” value [2] is reported as “More efficient” and the “Fidelity (mis-incorporation)” value [3] is reported as “No mis-”. For the same molecule, the “Activity on Detection System: more signals” value [4] was 3x more signals and the Inc50 [5] was “reduced”.

In the case of “Phi29: Phi29 polymerase benchmark of the Inc50 comparison in Table 1; probably the exo(−) parent [reference compound]”, the Inc50 [5] is reported as “(Phi29 = 0.14)”.

With “V250A: Phi29 exo(−) (D12A/D66A) polymerase mutant [Variant V250A]” the “extension within a minute” value [6] was “at least 5 bases”, the “extension under limiting conditions” value ([6]; 30 second to 1 minute extension time) was “visibly slowing down extension” and the “extension (FIG. 70C, 70D)” value [2] was “decreased”. The “Ensemble Extension Activity: γ-nucleotide incorporation” value [2] was “Decreased rate”, the “Activity on Detection System: more signals” value [4] was “Fewer signals” and the Inc50 [5] was “remains relatively unaffected”.

B1: VTaq647C: engineered mutant Taq polymerase comprising the mutation F647C, SEQ. ID: 7 (protein, listed as Thermus aquaticus)
chain: ALEEAPWPPPEGAFVGFVLSRKEPMWADLLALAAARGGRVHRAPEPYKALRDLKEARGLLAKDLSVLALREGLGLPPGDDPMLLAYLLDPSNTTPEGVARRYGGEWTEEAGERAALSERLFANLWGRLEGEERLLWLYREVERPLSAVLAHMEATGVRLDVAYLRALSLEVAEEIARLEAEVFRLAGHPFNLNSRDQLERVLFDELGLPAIGKTEKTGKRSTSAAVLEALREAHPIVEKILQYRELTKLKSTYIDPLPDLIHPRTGRLHTRFNQTATATGRLSSSDPNLQNIPVRTPLGQRIRRAFIAEEGWLLVALDYSQIELRVLAHLSGDENLIRVFQEGRDIHTETASWMCGVPREAVDPLMRRAAKTINFGVLYGMSAHRLSQELAIPYEEAQAFIERYFQSFPKVRAWIEKTLEEGRRRGYVETLFGRRRYVPDLEARVKSVREAAERMAFNMPVQGTAADLMKLAMVKLFPRLEEMGARMLLQVHDELVLEAPKERAEAVARLAKEVMEGVYPLAVPLEVEVGIGEDWLSAKE
In the case of B1, the “incorporation of gamma-labeled nucleotide” value [7] is reported as “significantly improved incorporation”.
